Data on 86 compounds can be found in PubChem BioAssay AID2305 (GlaxoSmithKline (GSK), 2010).

The test relates to P. falciparum 3D7 growth, pLDH absorbance. In words: P. falciparum 3D7 growth inhibition, dose response, strain 3D7 (AID 2305).

The compound `COc1ccc(C[C@H]2NC[C@H](O)[C@H]2OC(C)=O)cc1` yielded a half-inhibitory concentration (IC50) of 140 nM.
The compound `N#Cc1c(N2CCN(c3ccc(F)cc3)CC2)nc(N)c2c(N)nc3c(c12)CC(=O)N3C1CC1` displayed an IC50 of 840 nM.
Compound `N#CC(c1ccc(Br)cc1)c1ccc2c(C(F)(F)F)cc(C(F)(F)F)nc2n1` (stereo unspecified) displayed an IC50 of 440 nM.
The same measure for `Cc1ccccc1NC(=O)NC1CCN(CCCCCNC(=O)/C=C/c2ccc(Cl)c(Cl)c2)CC1`: 770 nM.
With `O=C(CCc1cnc[nH]1)Nc1ccc(-c2ccc(-c3nc4ccccc4[nH]3)cc2)cc1`, the IC50 amounted to 710 nM.
The same measure for `Nc1nccc2ccc(-c3ccc4nccn4c3)cc12`: 100 nM.
Regarding `Cc1[nH]c(C)c(-c2ccc(Oc3ccc(Cl)cc3)cc2)c(=O)c1Cl`, the 50% inhibitory concentration (IC50) turned out to be 790 nM.
Compound `COc1ccc(CNCc2ccsc2)cc1-c1ccc(S(=O)(=O)NCCN2CCCC2)c(C)c1` yielded a concentration for half-maximal inhibition (IC50) of 900 nM.
`COc1c(C2CCN(CCCCNC(=O)c3cc(-c4ccc(Cl)cc4)oc3C)CC2)ccc2c1CCCC2` came in with an IC50 of 880 nM.
`Cc1cc(N[C@@H](CC(C)C)C(=O)NCc2cccc(F)c2)nc(NCCc2ccc(F)cc2)n1` registered a half-maximal inhibitory concentration (IC50) of 1470 nM.
On to `O=C(Nc1ccc(OC2CCN(Cc3ccc(F)cc3)CC2)c(Cl)c1)c1ccsc1`, for which the IC50 turned out to be 720 nM.
For the compound `CCN1CCN(C(=O)NC(C(=O)N2CCCC(COc3ccc(Cc4ccccc4)cc3)C2)c2cccs2)C(=O)C1=O` (stereo unspecified), the IC50 came to 480 nM.
With `Nc1ncc(-c2ccc(F)cc2)c2ccc(-c3cccc(F)c3)cc12`, the IC50 amounted to 230 nM.
`COc1ccc2nccc(N3CCC(CCNCc4ccc5c(n4)NC(=O)CS5)CC3)c2c1` returned an IC50 of 210 nM.
The same measure for `O=C(N[C@@H](CC1CCCCC1)C(=O)NCc1cccc(C(F)(F)F)c1)c1ccc(O)c(-c2ccc(Cl)c(Cl)c2)c1`: 220 nM; for `c1ccc2c(C3CCN(CCCCOc4ccc5c(c4)CCN(CC4CC4)CC5)CC3)c[nH]c2c1`: 980 nM; for `CC(C)CC(C)NC(=O)C1Cc2c([nH]c3cc(Cl)ccc23)C2(CCN(CCc3ccccc3)CC2)N1` (stereo unspecified): 810 nM.
Take `COc1ccc2c(CNCCCCCCNCc3c(OC)ccc4cc(OC)ccc34)c(OC)ccc2c1`: the IC50 came to 560 nM.
Compound `CCCc1ccc(Nc2nc(C)cc(N(CC)CCCN3CCCCC3)n2)cc1` yielded an IC50 of 540 nM.
As to `Cc1cc(N)c2cc(NC(=O)c3cccc4ccccc34)ccc2n1`, the IC50 was 840 nM.
Turning to `O=C(Nc1ccc(-c2nc3ccccc3[nH]2)cc1)C1CCN(Cc2ccccc2)CC1`, the IC50 worked out at 1760 nM.
`Cc1[nH]c(C)c(-c2ccc(Oc3ccc(Cl)c(Cl)c3)cc2)c(=O)c1Cl` gave an IC50 of 110 nM.
Compound `CCNc1cc(C)nc(Nc2ccc(NS(=O)(=O)c3ccccc3)cc2)n1` showed an IC50 of 790 nM.
`Nc1ccc(-c2ccc3ccnc(N)c3c2)cc1`: the half-maximal inhibitory concentration (IC50) is 680 nM.
Compound `COc1ccc2nccc(NC(=O)C3(O)CCC(NCc4ccc5c(c4)NCCS5)CC3)c2n1` (stereo unspecified) came in with an IC50 of 600 nM.
`Cc1cnc(NC(=O)c2cn(-c3ccccc3)nc2-c2cccs2)s1` registered an IC50 of 950 nM.
The value for `CCC1CCCCN1S(=O)(=O)c1ccc(OC)c(N2CCN(C(=O)C(Cl)(Cl)Cl)CC2)c1` (stereo unspecified) was 1120 nM.
For `C=Cc1cc(OC)c2c(c1)c(=O)oc1c2cc(OC)c2c(O)ccc([C@H]3O[C@H]([C@@H](C)O)[C@H](O)[C@H]3O)c21`, the IC50 came out at 790 nM.
As to `Cc1cc(C(=O)CSc2nc3ccccc3n2-c2ccccc2)c(C)n1C1CCS(=O)(=O)C1` (stereo unspecified), the IC50 worked out at 1000 nM.
For the compound `CCNc1cc(C)nc(Nc2ccc(NS(=O)(=O)c3cc(OC)ccc3OC)cc2)n1`, the IC50 is 850 nM.
The same measure for `COc1cc2c(cc1S(=O)(=O)c1ccc(NC(=O)c3ccc4ccccc4c3)cc1)CCN(C)CC2`: 800 nM; for `COc1cc(Cc2cnc(N)nc2N)cc(OCCCN2C(=O)c3ccccc3C2=O)c1OC`: 990 nM.
`N[C@@H](CCNCc1ccc(-c2cccnc2)cc1)Cc1ccc(F)c(F)c1` showed an IC50 of 800 nM.
The same measure for `Cc1cc(N)c2cc(NC(=O)c3cccc(C(=O)Nc4ccc5nc(C)cc(N)c5c4)c3)ccc2n1`: 260 nM; for `Cc1ccc(NC(=O)c2ccc(N3CCC(c4ccccc4C)CC3)nc2)cc1`: 1400 nM; for `Cn1cc(C2CCN(CCCCNC(=O)c3sc(-c4ccc(C(F)(F)F)cc4)nc3CO)CC2)c2ccccc21`: 1060 nM.
The value for `Cc1ccc(C=C2SC(=Nc3ccccc3)NC2=O)c(C)c1` was 560 nM; that for `CC(C)(C)c1cc(NC2CC2)nc(-c2ccccn2)n1` was 720 nM.
In the case of `c1ccc2c(NCCc3cnc[nH]3)c3ccccc3nc2c1`, the IC50 stood at 1040 nM.
The same measure for `O=C(Nc1ccc(Cl)c(Cl)c1)Nc1ccc(F)c([N+](=O)[O-])c1`: 700 nM.
Regarding `O=c1cc(NCCCNCc2ccccc2-c2ccccc2)[nH]c2ccccc12`, the IC50 came to 980 nM.
Consider `CCCC(C)Nc1nc(C)cc(N[C@@H](CC(C)C)C(=O)Nc2ccc(OC)cc2)n1` (stereo partly specified), for which the concentration for half-maximal inhibition (IC50) was determined as 870 nM.
`Cc1cc(C(=O)NC2CCN(CC3(c4ccc(Cl)cc4)CCC3)CC2)on1`: the 50% inhibitory concentration (IC50) stood at 90 nM.
The compound `Cc1nc2ccccc2n1C1C[C@H]2CC[C@@H](C1)N2CCCC1(c2ccccc2)CCN(C(=O)OCc2ccccc2)CC1` (stereo partly specified) had an IC50 of 1000 nM.
`COc1ccc(Cn2c(Nc3cccc(C(F)(F)F)c3)nc3cc(C(=O)NCCN4CCCC4)cnc32)cc1Cl` returned a half-inhibitory concentration (IC50) of 920 nM.
Regarding `CCCCc1cc(N2CCC(NC(C)=O)C2)nc(Nc2ccc(C)cc2)n1` (stereo unspecified), the IC50 turned out to be 870 nM.
The same measure for `O=C(Nc1ccccc1-c1ccccc1)C1CCCN1C(=O)Nc1ccc(Cl)cc1` (stereo unspecified): 790 nM; for `CCCCN1CC[C@@H](CCC(O)c2cc(OCCC)nc3ccc(OC)cc23)[C@@H](CC)C1` (stereo partly specified): 360 nM.
For the compound `Cc1nn(C)c(C)c1CN(Cc1nc(-c2cccc(Oc3ccccc3)c2)oc1C)C1CC1`, the IC50 was 390 nM.
In turn, `Cc1ccc(C(=O)Nc2ccnc(N(C)C3CCN(Cc4cccc(O)c4)CC3)c2)cn1` showed an IC50 of 1880 nM.
Turning to `CC(=O)N(C)c1cccc(C(=O)Nc2cccc(-c3cccc(-c4nc5c(C)cccc5[nH]4)c3)c2)c1`, the concentration for half-maximal inhibition (IC50) turned out to be 620 nM.
`Cc1cccc2[nH]c(-c3cccc(-c4ccc(NC(=O)NCc5ccccc5)cc4)c3)nc12` came in with an IC50 of 230 nM.
The same measure for `CCOc1cc(C(C)C)ccc1N1CCN(CCCCNC(=O)c2ccc(NC(=O)c3ccc(Cl)cc3)cc2)CC1`: 420 nM; for `CCCC(C)NC[C@@H](O)[C@H](Cc1ccccc1)NC(=O)c1cc(NCC)cc(N2CCCCS2(=O)=O)c1` (stereo partly specified): 160 nM; for `O=C(/C=C/c1ccc(Cl)c(Cl)c1)N1CCCC(CCCN2CCC(c3c[nH]c4ccccc34)CC2)C1` (stereo unspecified): 1090 nM.
`COc1cccc2cc(C(=O)N[C@@H](CC(C)C)C(=O)Nc3cc(F)ccc3Br)oc12` came in with an IC50 of 970 nM.
Compound `FC(F)(F)c1cc(Nc2ccc(Oc3ccccc3)cc2)c2cc(-c3ccncc3)ccc2n1` had an IC50 of 450 nM.
The same measure for `CC(C(=O)Nc1ccc(Br)cc1Br)N1CCN(C(=O)c2ccco2)CC1` (stereo unspecified): 750 nM; for `Cc1cc(NC(=O)Nc2ccc(I)c(OCCN(C)C)c2)ccc1Br`: 620 nM.
In turn, `CN1CCCC(CN2CCN(Cc3ccc(-c4ccc(-c5nc6ccc(F)cc6[nH]5)cc4)cc3)CC2)C1` (stereo unspecified) had an IC50 of 120 nM.
Consider `COc1ccc(CNC2CCN(C)CC2)cc1-c1ccc(S(=O)(=O)NCc2ccccc2)c(C)c1`, for which the concentration for half-maximal inhibition (IC50) came out at 990 nM.
In turn, `Cc1ccc(NC(=O)Nc2ccc(S(=O)(=O)c3ccc(NC(=O)Nc4ccc(C)c(Cl)c4)cc3)cc2)cc1Cl` displayed an IC50 of 750 nM.
`O=c1cc(NCCCCNCc2cccc(C(F)(F)F)c2)[nH]c2ccccc12` gave an IC50 of 790 nM.
The same measure for `CC1CN(Cc2ccc(-c3ccc(-c4nc5ccccc5[nH]4)cc3)cc2)CC(C)O1` (stereo unspecified): 520 nM.
`Nc1ccc2[nH]cc(C3CCN(CC4CCC(NC(=O)/C=C/c5ccc(Cl)c(Cl)c5)CC4)CC3)c2n1` (stereo unspecified) gave an IC50 of 730 nM.
`CCN1CCN(Cc2ccc(NC(=O)c3cc4ccc5cccnc5c4[nH]3)cc2)CC1` registered a 50% inhibitory concentration (IC50) of 850 nM.
In the case of `Cc1cccc(C)c1CNc1nc(N2CCOCC2)cc2c(C)c(C)[nH]c12`, the IC50 was 1240 nM.
As for `CCn1ccc2c(N3CCCCS3(=O)=O)cc(C(=O)N[C@@H](Cc3ccccc3)[C@H](O)CNC3CCCCC3)cc21`, the 50% inhibitory concentration (IC50) was 120 nM.
The value for `COc1ccc(Cl)cc1N1CCN(CCCNC(=O)c2ccc(-c3nc4cc(Cl)c(C)cc4[nH]3)c(F)c2)CC1` was 180 nM.
`CCOc1ccc(C(=O)Nc2ccc(-c3nc4ccccc4[nH]3)cc2)cc1[N+](=O)[O-]` registered a 50% inhibitory concentration (IC50) of 590 nM.
Turning to `CCOc1ccc(C(=O)Nc2cc(Br)c3c(c2)CNCC3)cc1Cl`, the IC50 turned out to be 1040 nM.
As to `Cc1cccc2[nH]c(-c3cccc(-c4cccc(NC(=O)Nc5ccc(Cl)cc5)c4)c3)nc12`, the IC50 was 240 nM.
In turn, `O=C(/C=C/c1ccc(Cl)cc1)NCCCCCN1CCCC(C(=O)Nc2cccc(Cl)c2)C1` (stereo unspecified) returned an IC50 of 210 nM.
`Cc1[nH]c(C)c(-c2ccc(Nc3ccc(C(F)(F)F)cn3)cc2)c(=O)c1Br` gave an IC50 of 30 nM.
For the compound `Cc1cccc2[nH]c(-c3ccc(-c4cccc(NC(=O)c5cnn6cccnc56)c4)cc3)nc12`, the 50% inhibitory concentration (IC50) turned out to be 870 nM.
The same measure for `O=C(Nc1ccc(CN2CCC(c3c[nH]c4ccc(O)cc34)CC2)cc1)c1ccc(-c2ccccc2)cc1`: 250 nM.
For the compound `Cc1cc(N[C@@H](CC(C)C)C(=O)NCCOc2ccccc2)nc(NCCc2ccc(F)cc2)n1`, the IC50 worked out at 1290 nM.
Compound `CC(C)c1cccc(OCC2CCN(c3ccc(C(=O)Nc4ccccc4)cn3)CC2)c1` gave an IC50 of 700 nM.
In turn, `CN(Cc1ccc(NC(=O)CCC2CCN(C(=O)/C=C/c3ccc(Cl)c(Cl)c3)CC2)cc1)C1CCOCC1` displayed an IC50 of 1730 nM.
Turning to `CC[C@H]1CN2CC[C@H]1C[C@@H]2[C@H](O)c1ccnc2ccc(O)cc12`, the IC50 is 1040 nM.
As for `O=C(/C=C/c1ccc(Cl)cc1)NCCCCCN1CCCN(C(=O)Nc2ccc(Cl)c(C(F)(F)F)c2)CC1`, the 50% inhibitory concentration (IC50) stood at 910 nM.
Compound `COc1ccc(CC(=O)NC(CCN2CCC3(CCc4ccccc43)CC2)c2ccc(Cl)c(Cl)c2)cc1` (stereo unspecified) returned a 50% inhibitory concentration (IC50) of 530 nM.
`CCOc1cc(C(=O)NCCc2ccc(Cl)c(Cl)c2)ccc1-c1nc2ccc(Cl)cc2[nH]1` yielded a half-inhibitory concentration (IC50) of 890 nM.
The same measure for `COC(C(=O)OCCC1CCCN1C)(c1ccccc1)C1CCCCC1` (stereo unspecified): 710 nM; for `NCCCCNc1cc(-c2ccnc(Nc3cccc(Cl)c3)n2)ccn1`: 280 nM; for `COc1ccc(S(=O)(=O)N2CCCc3ccc(Br)cc32)cc1N1CCN(C(=O)C(Cl)(Cl)Cl)CC1`: 810 nM.

As usually defined, the IC50 is the point on the concentration scale where inhibition reaches its midpoint. Low values mean higher potency, high ones lower potency.
